Results reported in patent US10407712B2, “Methods, compositions and kits for high throughput kinase activity screening using mass spectrometry and stable isotopes” (President and Fellows of Harvard College, priority 2008, dated 2019).

Tested on: HEK293 cell lysates
Assay: Single-reaction 90-substrate KAYAK assay, HEK293 lysates with or without insulin
Format: biochemical, human
Conditions: 5 μM each peptide, HEK293 lysate
Protocol: For stimulation of HEK293 cells or HeLa lines, cells were treated with insulin (100 nM; 10-30 min) EGF (50 ng/ml; 10 min) or phorbol 12-myristate 13-acetate (PMA; 50 or 100 ng/ml; 10 -30 min) at 37° C. for the indicated times after overnight serum-starvation.
Alternatively, cells were washed with PBS once and lysed with ice-cold lysis buffer, 10 mM potassium phosphate, pH 7.0, containing 0.5% NP-40, 0.1% Brij 35, 0.1% deoxycholic acid, 1 mM ethylenediaminetetraacetic acid (EDTA), 5 mM ethylene glycol tetraacetic acid (EGTA), 10 mM MgCl2, 50 mM β-glycerophosphate, 1 mM Na3VO4, 2 mM dithiothreitol (DTT) and protease inhibitor cocktail (Complete, Roche Applied Science, Indianapolis, Ind.). Homogenates were centrifuged at 10,000 rpm for 15 min at 4° C., and the supernatant was used as lysate. Protein concentration was quantified by a modified Bradford assay (Pierce).
Peptides were synthesized, purified and quantified as described in Yu et al. 2009 Proc Natl Acad Sci USA 106: 11606-11611, hereby incorporated by reference herein in its entirety. Each substrate peptide (250 pmol) was mixed to a final concentration of 5 μM in the 50 μL reaction mixture. Alternatively, reactions were performed using 6 μg cell lysate aliquotes mixed to a final volume of 20 μl. Cell lysate or other kinase source was added to the substrate mixture in 25 mM Tris-Cl, pH 7.5, containing 5 mM ATP, 7.5 mM MgCl2, 0.2 mM EGTA, 7.5 mM β-glycerophosphate, 0.1 mM Na3VO4, and 0.1 mM DTT. The reaction was incubated at 25° C. for 60 min and then terminated by the addition of 100 μl of 1% trifluoroacetic acid (TFA) containing a known amount of an internal standard (typically 20 pmol). Alternatively, the reaction was incubated at 20° C. for 45 min before termination with TFA.
Internal standard heavy peptides (5 pmol each) were added as a mixture to the terminated reactions followed by desalting with a solid phase extraction cartridge (SepPak tC18 (50 mg), Waters, Milford, Mass.). Phosphopeptides were enriched as described (Villen et al. 2008 Nat Protoc 3: 1630-1638). […]
For KAYAK analyses, phosphopeptides were dissolved in 5% FA and injected onto a 125-μm-internal diameter fused silica column packed with Magic C18 AQ material (Michrom Bioresources, Auburn, Calif.). Peptides were separated using a two-solvent system: solvent A (0.125% FA and 3% ACN in H2O), solvent B (0.125% FA in ACN) over 32 min gradient, and eluting peptides were directly analyzed using an LTQ-Orbitrap mass spectrometer (Thermo Scientific, San Jose, Calif.) equipped with the electron transfer dissociation option. […]

## RIRTQSFSLQPFR (The sequence was designed and synthesized) [F6]
  phosphorylation in response to insulin stimulation: increased phosphorylation
